Measurements: patent publication US6593301B1, “Use of steroidal saponins for the prophylaxis or treatment of dementia, and novel steroidal saponin compounds” (Institute of Radiation Medicine, priority 2000, dated 2003)
Like-named read-outs stand apart in the source and are kept apart here.

Tests used:
cerebral basilar artery = experiment: Experiment on cerebral basilar artery (isolated artery on transducer, KCl as vasoconstrictor); settings: for Effect on the basilar artery (dilation): 50 μl solution added to the bath
Method: Take 50 μl solutions to dissolved in 5 ml saline again. (2). Remove the cerebrum and cerebellum from the fresh brain, and get the middle part of the basilar artery (3). Adjust the transducer and amplifier to make pointer return to zero (4). Hang the basilar artery on the transducer and immerse it in the bath.

[1] = Scavenging effects on hydroxyl free radicals (Fenton reaction, ESR)
rat thoracic aorta = settings: 0.04 mM
Source text: Take thoracic aorta from rat, remove the connective tissue and blood, immerse the aorta into the Krebs-Henselelt liquid and ventilate oxygen, hang the aorta on the transducer, and assay its radial tension.

[2] = system: cerebral blood flow of rat; settings: for Mean of rCBF / Rate of rCBF increase / rCBF Rat 1 / rCBF Rat 2 / rCBF Rat 3 / rCBF Rat 4: 50 μg/Kg intravenous
Method: Method: Hydrogen-clearing method
Instrument: LS-III Blood Flow Meter
1. Anesthetize the rat with 10% chloral hydrate, separate the general vein of thigh and intubate to prepare to inject Compound III.
2. Open a window in the parietal lobe of dermal epithelium with cranial drill and lay up hydrogen electrode.
3. After operation, collect the animal with the Blood Follow Meter and computer, steady for 30 minutes and begin to measure the rCBF (regional cerebral blood flow).

[3] = system: nicotinic receptors (SY-SH5Y human neuroblastoma cell); settings: SY-SH5Y cells treated three days, 1 μM up to 100 μM
Method: (§1) In the experiments, we used two different cell lines, SY-SH5Y and M10. SY-SH5Y is human neuroblastoma cell which expresses natural nicotinic and muscarinic receptors, and M10 cell expresses the recombinant a4b2 subtype of chicken nicotinic receptor. We treated both cell lines with Compound III for three days with different concentrations from 1 μM up to 100 μM, and measured the amount of nAChRs.

[4] = system: recombinant a4b2 subtype of chicken nicotinic receptor (M10 cells); settings: M10 cells treated three days, 1 μM up to 100 μM
Method: as §1

[5] = system: rat hippocampus neuronal cells; experiment: Proliferation of rat hippocampus neuronal cells (MTT staining, OD); format: cell-based; settings: 7 days
Method: 1. Get hippocampus neuronal cells from rat embryo and do preliminary cell culture.
2. Incubate the cells for 7 days at different concentration (3 or 5 parallel holes for each group).
3. Do MTT staining and measure OD value.

## CC1=C(CC[C@H](C)CO[C@@H]2O[C@H](CO)[C@@H](O)[C@H](O)[C@H]2O)O[C@H]2C[C@H]3[C@@H]4CC[C@@H]5C[C@@H](O[C@@H]6O[C@H](CO)[C@@H](O)[C@H](O)[C@H]6O[C@@H]6O[C@H](CO)[C@@H](O)[C@H](O)[C@H]6O)CC[C@]5(C)[C@H]4CC[C@]3(C)[C@@H]12 [Compound II, (25S)-26-O-β-D-glucopyranosyl-5β-furost-20(22)-ene-3β,26-diol-3-O-β-D-glucopyranosyl(1→2)-β-D-glucopyranoside]
Cerebral basilar artery
  Effect on the basilar artery (dilation): no obvious effect
[1]; 5 mg/ml, ESR, Fenton reaction
  Scavenging rate: 40.0%
[1]; Fe^2++H2O2
  Scavenging of hydroxyl free radicals produced by Fenton reaction (in words): could scavenge

## C[C@@H](CCC1(O)O[C@H]2C[C@H]3[C@@H]4CC[C@@H]5C[C@@H](O[C@@H]6O[C@H](CO)[C@H](O)[C@H](O)[C@H]6O[C@@H]6O[C@H](CO)[C@@H](O)[C@H](O)[C@H]6O)CC[C@]5(C)[C@H]4CC[C@]3(C)[C@H]2[C@@H]1C)CO[C@@H]1O[C@H](CO)[C@@H](O)[C@H](O)[C@H]1O (stereo partly drawn) [Compound III, (25S)-26-β-D-glucopyranosyl-22-hydroxy-5β-furost-3β,26-diol-3-0-β-D-glucopyranosyl(1→2)-β-D-galactopyranoside]
Cerebral basilar artery
  Effect on the basilar artery (dilation): dilated slightly
Cerebral basilar artery; after 50 μl compound added to the bath
  Contraction of the basilar artery when adding the vasoconstrictor KCl: did not contract again
Cerebral basilar artery; at 10^−5 g/ml (0.01 mM)
  Dilation of cerebral vascular and resistance to contraction caused by vasoconstrictor: could dilate cerebral vascular and resist the contraction caused by vasoconstrictor
Cerebral basilar artery; same experimental conditions
  Effective concentration compared with positive Ligustrazine: two orders of magnitude lower
Rat thoracic aorta
  Inhibition of contraction of rat aorta caused by KCl: could restrain the contraction
[2]; 1 min
  Mean of rCBF: 141.5625 mL/mg/min
  Rate of rCBF increase: 7.806%
  rCBF Rat 1: 133.30 mL/mg/min
  rCBF Rat 2: 150.05 mL/mg/min
  rCBF Rat 3: 139.55 mL/mg/min
  rCBF Rat 4: 143.35 mL/mg/min
[2]; 10 min
  Mean of rCBF: 149.7850 mL/mg/min
  Rate of rCBF increase: 14.07%
  rCBF Rat 1: 147.99 mL/mg/min
  rCBF Rat 2: 143.41 mL/mg/min
  rCBF Rat 3: 162.10 mL/mg/min
  rCBF Rat 4: 145.64 mL/mg/min
[2]; 20 min
  Mean of rCBF: 148.4050 mL/mg/min
  Rate of rCBF increase: 13.02%
  rCBF Rat 1: 158.46 mL/mg/min
  rCBF Rat 2: 136.33 mL/mg/min
  rCBF Rat 3: 177.59 mL/mg/min
  rCBF Rat 4: 121.24 mL/mg/min
[2]; 30 min
  Mean of rCBF: 163.4975 mL/mg/min
  Rate of rCBF increase: 24.51%
  rCBF Rat 1: 164.61 mL/mg/min
  rCBF Rat 2: 182.96 mL/mg/min
  rCBF Rat 3: 171.42 mL/mg/min
  rCBF Rat 4: 135.00 mL/mg/min
[2]; 40 min
  Mean of rCBF: 164.6700 mL/mg/min
  Rate of rCBF increase: 25.4%
  rCBF Rat 1: 176.90 mL/mg/min
  rCBF Rat 2: 202.46 mL/mg/min
  rCBF Rat 3: 165.94 mL/mg/min
  rCBF Rat 4: 113.38 mL/mg/min
[2]; 50 min
  Mean of rCBF: 166.1475 mL/mg/min
  Rate of rCBF increase: 26.53%
  rCBF Rat 1: 176.77 mL/mg/min
  rCBF Rat 2: 193.57 mL/mg/min
  rCBF Rat 3: 163.08 mL/mg/min
  rCBF Rat 4: 131.17 mL/mg/min
[2]; 50 μg/kg in vivo (text summary, time not stated)
  Increase of the rCBF of rat: 26.5%
[2]; administered intravenously at the effective concentration (50 μg/kg)
  Hemolysis: no hemolysis
[3]
  Number of nAChRs: significantly up-regulate
[4]
  Number of nAChRs: significantly up-regulate
[5]; 0.1 μg/ml
  Mean of OD: 0.0773
  Proliferation rate: 23.88%
[5]; 1 μg/ml
  Mean of OD: 0.0663
  Proliferation rate: 6.25%
[5]; 10 μg/ml
  Mean of OD: 0.0860
  Proliferation rate: 37.82%
[5]; 50 μg/ml
  Mean of OD: 0.0807
  Proliferation rate: 29.33%
[5]; 100 μg/ml
  Mean of OD: 0.0750
  Proliferation rate: 20.19%
[5]; 500 μg/ml
  Mean of OD: 0.0903
  Proliferation rate: 44.71%
[5]; 1000 μg/ml
  Mean of OD: 0.0673
  Proliferation rate: 7.853%
[1]
  Inhibitory rate (hydroxyl free radicals): 56.7%
  Scavenging effect relative to the other compounds: most effective
  Scavenging of hydroxyl free radicals produced by Fenton reaction (in words): could scavenge
  Scavenging rate: 56.7%

## CC1=C(CC[C@H](C)CO[C@@H]2O[C@H](CO)[C@@H](O)[C@H](O)[C@H]2O)O[C@H]2C[C@H]3[C@@H]4CC[C@@H]5C[C@@H](O[C@@H]6O[C@H](CO)[C@H](O)[C@H](O)[C@H]6O[C@@H]6O[C@H](CO)[C@@H](O)[C@H](O)[C@H]6O)CC[C@]5(C)[C@H]4CC[C@]3(C)[C@@H]12 [Compound I, (25S)-26-O-β-D-glucopyranosyl-5β-furost-20(22)-ene-3β,26-diol-3-O-β-D-glucopyranosyl(1→2)-β-D-galactopyranoside]
Cerebral basilar artery
  Effect on the basilar artery (dilation): no obvious effect
[1]; 5 mg/ml, ESR, Fenton reaction
  Scavenging rate: 23.3%
[1]; Fe^2++H2O2
  Scavenging of hydroxyl free radicals produced by Fenton reaction (in words): could scavenge

## COC1(CC[C@H](C)CO[C@@H]2O[C@H](CO)[C@@H](O)[C@H](O)[C@H]2O)O[C@H]2C[C@H]3[C@@H]4CC[C@@H]5C[C@@H](O[C@@H]6O[C@H](CO)[C@H](O)[C@H](O)[C@H]6O[C@@H]6O[C@H](CO)[C@@H](O)[C@H](O)[C@H]6O)CC[C@]5(C)[C@H]4CC[C@]3(C)[C@H]2[C@@H]1C (stereo partly drawn) [Compound IV, (25S)-26-0-β-D-glucopyranosyl-22-methoxy-5β-furost-3β,26-diol-3-0-β-D-glucopyranosyl(1→2)-β-D-galactopyranoside]
Cerebral basilar artery
  Effect on the basilar artery (dilation): no obvious effect
[1]
  Scavenging of hydroxyl free radicals produced by Fenton reaction (in words): could scavenge
  Scavenging rate: 33.3%
